Test results: publication PMC7285002, “Enhanced Oral Bioavailability of the Pharmacologically Active Lignin Magnolol via Zr-Based Metal Organic Framework Impregnation” (Pharmaceutics, 2020)
Read-outs that look alike come from different tables or passages of the source.

How the values were obtained:
[1] = Tissue distribution of unconjugated magnolol; assay type: in vivo; conditions: Sprague-Dawley (SD), rat, 1 h after oral 50 mg kg^−1, male SD rats
Procedure: (§1) The determination of the bioavailability of magnolol and its tissue distribution to the brain, liver, and kidney was done according to the method of Ding et al. (2018), Higashi (2015), Lin et al. (2011), and Kotani et al. (2005).
After one hour of administration, the animals were euthanized in a carbon dioxide chamber and their organs (brain, liver, and kidney) were collected. The organs were weighed and homogenized in 10 mL of acetonitrile, and centrifuged at 10,000 rpm for 10 min. The supernatant was dried under reduced pressure.
(§2) Samples were reconstituted with acetonitrile prior to HPLC analysis. The samples were injected into the HPLC (n = 3). The quantity of magnolol was computed using a standard calibration curve.

[2] = Oral bioavailability / pharmacokinetic study (serum magnolol by HPLC); assay type: in vivo; conditions: Sprague-Dawley (SD), rat, 100 mg kg^−1, male SD rats; for AUC(0-t): read-out: AUC0–720 (converted); for half-life: male, 100 mg/kg
Procedure: as §1
For the pharmacokinetic study, male SD rats were randomly divided into 4 groups (n = 3). […] Blood samples (approximately 200 to 250 µL) were collected at predetermined time points (15, 30, 60, 120, 180, 240, 480, and 720 min) and allowed to clot and centrifuged at 4000 rpm at 4 °C for 5 min to obtain the serum. The obtained sera were treated with equal amount of acetonitrile and then centrifuged again to obtain the protein-free sera.
as §2

[3] = low bioavailability of magnolol, stated in the abstract without reference; cited from earlier work
[4] = tested on: female Sprague Dawley rats; test: Acute oral toxicity (OECD 425, limit test); assay type: in vivo
Procedure: Animal toxicity test was done in accordance with the Organization for Economic Cooperation and Development guidelines for testing chemical compounds using the up and down method (OECD procedure 425). Prior to dosing, 2 mL of blood was extracted through tail clipping and was submitted for alanine aminotransferase (ALT) and creatinine level determinations for signs of liver and kidney damages, respectively. […] In cases where the first animal survived, an additional four rats were subjected to the same dose. […] An additional rat was administered with the solvent only to compare the variation in the animal species. Test animals that survived in the 14-day observation were euthanized in a carbon dioxide chamber followed by the harvesting of blood, liver and kidney of all test animals. The blood was once again submitted for ALT and creatinine level determination. The organs were submitted for tissue mounting and histopathological evaluation.

**Q.** Which results are given for `C=CCc1ccc(O)c(-c2cc(CC=C)ccc2O)c1` [Magnolol, 4-Allyl-2-(5-allyl-2-hydroxy-phenyl)phenol]?
**A.** concentration at 1 h ([1]; brain, read-out: mean magnolol concentration, Brain): 374 ± 22 ng/g; concentration at 1 h ([1]; kidney, read-out: mean magnolol concentration, Kidneys): 3740 ± 890 ng/g; concentration at 1 h ([1]; liver, read-out: mean magnolol concentration, Liver): 790 ± 180 ng/g; AUC(0-inf) ([2]; IP (intraperitoneal route)): 66900 ng·h/mL; Cmax ([2]; IP (intraperitoneal route)): 5100 ± 650 ng/mL; Tmax ([2]; IP (intraperitoneal route)): 64.1 min; AUC(0-t) ([2]; IP (intraperitoneal route)): 43000 ng·h/mL; AUC(0-inf) ([2]; PO (oral route)): 15100 ng·h/mL; Cmax ([2]; PO (oral route)): 2570 ± 260 ng/mL; Tmax ([2]; PO (oral route)): 55.8 min; AUC(0-t) ([2]; PO (oral route)): 13700 ng·h/mL; half-life ([2]; ip, IP (intraperitoneal route), read-out: Abs T1/2 (absorption half-life)): 17.1 ± 3.63 min; half-life ([2]; ip, IP (intraperitoneal route), read-out: T1/2 (elimination half-life)): 461 ± 37.4 min; half-life ([2]; po, PO (oral route), read-out: Abs T1/2 (absorption half-life)): 23.3 ± 3.16 min; half-life ([2]; po, PO (oral route), read-out: T1/2 (elimination half-life)): 100 ± 20.4 min; bioavailability [3]: 4–5%; survival after limit dose ([4]; 2000 mg kg^−1 oral, female SD rats, 14 days): All test animals survived; mean serum ALT level, before vs after administration ([4]; 2000 mg kg^−1 oral, paired t-test): no significant difference; median lethal dose (LD50) ([4]; oral gavage, female SD rats, 14-day observation, assumed from limit test): greater than 2000 mg kg^−1
